# Test results taken from ChEMBL document CHEMBL1145438, “Synthesis and matrix metalloproteinase (MMP)-12 inhibitory activity of ageladine A and its analogs” (Bioorg Med Chem Lett, 2007).
# Molecular target: Macrophage metalloelastase (Homo sapiens, UniProt P39900)
# Test: Inhibition of MMP12
# Chain of Macrophage metalloelastase (P39900 whole entry): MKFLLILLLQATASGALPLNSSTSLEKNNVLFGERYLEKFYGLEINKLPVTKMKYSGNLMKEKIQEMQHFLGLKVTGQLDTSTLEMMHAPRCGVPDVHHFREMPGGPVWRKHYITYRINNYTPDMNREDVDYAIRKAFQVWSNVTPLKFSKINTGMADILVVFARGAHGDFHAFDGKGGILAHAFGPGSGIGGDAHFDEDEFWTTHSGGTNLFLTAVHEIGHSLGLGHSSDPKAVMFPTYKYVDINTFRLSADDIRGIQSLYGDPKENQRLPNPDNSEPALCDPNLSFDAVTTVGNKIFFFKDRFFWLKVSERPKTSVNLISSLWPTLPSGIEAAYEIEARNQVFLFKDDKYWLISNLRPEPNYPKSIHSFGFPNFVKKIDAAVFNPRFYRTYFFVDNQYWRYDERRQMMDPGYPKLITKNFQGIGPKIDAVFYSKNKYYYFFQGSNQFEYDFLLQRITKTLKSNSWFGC
row,SMILES,IC50
1,CNc1nc2c(-c3cc(Br)c(Br)[nH]3)nccc2n1C,> 100 µM
2,CN(C)c1nc2c(-c3cc(Br)c(Br)[nH]3)nccc2[nH]1,> 100 µM
3,Nc1nc2c(-c3ccc[nH]3)nccc2[nH]1,> 100 µM
4,Cn1c(-c2nccc3[nH]c(N)nc23)cc(Br)c1Br,> 100 µM
5,Nc1nc2c(-c3cc(Br)c[nH]3)nccc2[nH]1,> 100 µM
6,Cn1c(N)nc2c(-c3cc(Br)c(Br)[nH]3)nccc21,56.9 µM
7,Brc1cc(-c2nccc3[nH]cnc23)[nH]c1Br,43.6 µM
8,CNc1nc2c(-c3cc(Br)c(Br)[nH]3)nccc2[nH]1,10.4 µM
9,Nc1nc2c(-c3ccc(Br)[nH]3)nccc2[nH]1,> 100 µM
10,Nc1nc2c(-c3cc(Br)c(Br)[nH]3)nccc2[nH]1 [AGELADINE A],3.66 µM
